According to the NIST ThermoML archive (doi:10.1021/je900596d):

Conditions: Vibrating tube method

FC(F)=C(F)C(F)(F)F [hexafluoropropene]
Conditions | mass density [kg/m3]
357.01 K, 9852.5 kPa, Liquid | 1135.74
357.01 K, 9892.6 kPa, Liquid | 1136.38
357.01 K, 9933 kPa, Liquid | 1137.03
357.01 K, 9973.2 kPa, Liquid | 1137.69
357.06 K, 1.6 kPa, Fluid (supercritical or subcritical phases) | 0.18
357.06 K, 3.4 kPa, Fluid (supercritical or subcritical phases) | 0.25
357.06 K, 4.2 kPa, Fluid (supercritical or subcritical phases) | 0.26
357.06 K, 4.9 kPa, Fluid (supercritical or subcritical phases) | 0.29
357.06 K, 6.3 kPa, Fluid (supercritical or subcritical phases) | 0.31
357.06 K, 6.6 kPa, Fluid (supercritical or subcritical phases) | 0.32
357.06 K, 7 kPa, Fluid (supercritical or subcritical phases) | 0.35
357.06 K, 7.4 kPa, Fluid (supercritical or subcritical phases) | 0.43
357.06 K, 9.1 kPa, Fluid (supercritical or subcritical phases) | 0.47
357.06 K, 9.5 kPa, Fluid (supercritical or subcritical phases) | 0.49
357.06 K, 11 kPa, Fluid (supercritical or subcritical phases) | 0.56
357.06 K, 12.4 kPa, Fluid (supercritical or subcritical phases) | 0.6
357.06 K, 13.5 kPa, Fluid (supercritical or subcritical phases) | 0.66
357.06 K, 14.9 kPa, Fluid (supercritical or subcritical phases) | 0.76
357.06 K, 15.9 kPa, Fluid (supercritical or subcritical phases) | 0.79
357.06 K, 17 kPa, Fluid (supercritical or subcritical phases) | 0.85
357.06 K, 19.1 kPa, Fluid (supercritical or subcritical phases) | 0.98
357.06 K, 21.6 kPa, Fluid (supercritical or subcritical phases) | 1.08
357.06 K, 22.7 kPa, Fluid (supercritical or subcritical phases) | 1.11
357.06 K, 24 kPa, Fluid (supercritical or subcritical phases) | 1.15
357.06 K, 25.1 kPa, Fluid (supercritical or subcritical phases) | 1.25
357.06 K, 26.3 kPa, Fluid (supercritical or subcritical phases) | 1.3
357.06 K, 27.3 kPa, Fluid (supercritical or subcritical phases) | 1.36
357.06 K, 28.4 kPa, Fluid (supercritical or subcritical phases) | 1.4
357.06 K, 29.7 kPa, Fluid (supercritical or subcritical phases) | 1.46
357.06 K, 30.8 kPa, Fluid (supercritical or subcritical phases) | 1.51
357.06 K, 31.8 kPa, Fluid (supercritical or subcritical phases) | 1.61
357.06 K, 34 kPa, Fluid (supercritical or subcritical phases) | 1.66
357.06 K, 35.1 kPa, Fluid (supercritical or subcritical phases) | 1.71
357.06 K, 36.4 kPa, Fluid (supercritical or subcritical phases) | 1.75
357.06 K, 37.5 kPa, Fluid (supercritical or subcritical phases) | 1.84
357.06 K, 38.5 kPa, Fluid (supercritical or subcritical phases) | 1.93
357.06 K, 39.6 kPa, Fluid (supercritical or subcritical phases) | 1.96
357.06 K, 40.6 kPa, Fluid (supercritical or subcritical phases) | 2.02
357.06 K, 48 kPa, Fluid (supercritical or subcritical phases) | 2.38
357.06 K, 58.6 kPa, Fluid (supercritical or subcritical phases) | 2.86
357.06 K, 69.5 kPa, Fluid (supercritical or subcritical phases) | 3.37
357.06 K, 80.9 kPa, Fluid (supercritical or subcritical phases) | 3.92
357.06 K, 92.8 kPa, Fluid (supercritical or subcritical phases) | 4.57
357.06 K, 104.1 kPa, Fluid (supercritical or subcritical phases) | 5.19
357.06 K, 115 kPa, Fluid (supercritical or subcritical phases) | 5.66
357.06 K, 125.7 kPa, Fluid (supercritical or subcritical phases) | 6.22
357.06 K, 136.4 kPa, Fluid (supercritical or subcritical phases) | 6.83
357.06 K, 148.3 kPa, Fluid (supercritical or subcritical phases) | 7.41
357.06 K, 159.2 kPa, Fluid (supercritical or subcritical phases) | 8.05
357.06 K, 170 kPa, Fluid (supercritical or subcritical phases) | 8.65
357.06 K, 180.8 kPa, Fluid (supercritical or subcritical phases) | 9.19
357.06 K, 191.6 kPa, Fluid (supercritical or subcritical phases) | 9.77
357.06 K, 206.8 kPa, Fluid (supercritical or subcritical phases) | 10.67
357.06 K, 232.7 kPa, Fluid (supercritical or subcritical phases) | 11.91
357.06 K, 245.6 kPa, Fluid (supercritical or subcritical phases) | 12.63
357.06 K, 258.5 kPa, Fluid (supercritical or subcritical phases) | 13.31
357.06 K, 271.2 kPa, Fluid (supercritical or subcritical phases) | 14.01
357.06 K, 284 kPa, Fluid (supercritical or subcritical phases) | 14.69
357.06 K, 296.8 kPa, Fluid (supercritical or subcritical phases) | 15.39
357.06 K, 309.5 kPa, Fluid (supercritical or subcritical phases) | 16.12
357.06 K, 322.1 kPa, Fluid (supercritical or subcritical phases) | 16.71
357.06 K, 334.9 kPa, Fluid (supercritical or subcritical phases) | 17.44
357.06 K, 347.5 kPa, Fluid (supercritical or subcritical phases) | 18.11
357.06 K, 360.2 kPa, Fluid (supercritical or subcritical phases) | 18.86
357.06 K, 372.7 kPa, Fluid (supercritical or subcritical phases) | 19.48
357.06 K, 385.4 kPa, Fluid (supercritical or subcritical phases) | 20.16
357.06 K, 401.9 kPa, Fluid (supercritical or subcritical phases) | 21.1
357.06 K, 415.8 kPa, Fluid (supercritical or subcritical phases) | 21.9
357.06 K, 430.3 kPa, Fluid (supercritical or subcritical phases) | 22.74
357.06 K, 445 kPa, Fluid (supercritical or subcritical phases) | 23.53
357.06 K, 459.8 kPa, Fluid (supercritical or subcritical phases) | 24.37
357.06 K, 474.6 kPa, Fluid (supercritical or subcritical phases) | 25.15
357.06 K, 489.6 kPa, Fluid (supercritical or subcritical phases) | 26
357.06 K, 504.5 kPa, Fluid (supercritical or subcritical phases) | 26.95
357.06 K, 519.5 kPa, Fluid (supercritical or subcritical phases) | 27.84
357.06 K, 534.4 kPa, Fluid (supercritical or subcritical phases) | 28.66
357.06 K, 549.4 kPa, Fluid (supercritical or subcritical phases) | 29.55
357.06 K, 564.2 kPa, Fluid (supercritical or subcritical phases) | 30.41
357.06 K, 579 kPa, Fluid (supercritical or subcritical phases) | 31.28
357.06 K, 593.8 kPa, Fluid (supercritical or subcritical phases) | 32.12
357.06 K, 604.8 kPa, Fluid (supercritical or subcritical phases) | 32.81
357.06 K, 619.6 kPa, Fluid (supercritical or subcritical phases) | 33.65
357.06 K, 634.3 kPa, Fluid (supercritical or subcritical phases) | 34.49
357.06 K, 648.9 kPa, Fluid (supercritical or subcritical phases) | 35.43
357.06 K, 663.4 kPa, Fluid (supercritical or subcritical phases) | 36.27
357.06 K, 677.9 kPa, Fluid (supercritical or subcritical phases) | 37.14
357.06 K, 692.4 kPa, Fluid (supercritical or subcritical phases) | 37.98
357.06 K, 706.7 kPa, Fluid (supercritical or subcritical phases) | 38.87
357.06 K, 721 kPa, Fluid (supercritical or subcritical phases) | 39.69
357.06 K, 735.2 kPa, Fluid (supercritical or subcritical phases) | 40.55
357.06 K, 749.2 kPa, Fluid (supercritical or subcritical phases) | 41.45
357.06 K, 763.3 kPa, Fluid (supercritical or subcritical phases) | 42.35
357.06 K, 777.3 kPa, Fluid (supercritical or subcritical phases) | 43.14
357.06 K, 791.2 kPa, Fluid (supercritical or subcritical phases) | 44.03
357.06 K, 805.1 kPa, Fluid (supercritical or subcritical phases) | 44.87
357.06 K, 818.9 kPa, Fluid (supercritical or subcritical phases) | 45.78
357.06 K, 832.6 kPa, Fluid (supercritical or subcritical phases) | 46.65
357.06 K, 846.3 kPa, Fluid (supercritical or subcritical phases) | 47.44
357.06 K, 859.8 kPa, Fluid (supercritical or subcritical phases) | 48.34
357.06 K, 873.5 kPa, Fluid (supercritical or subcritical phases) | 49.21
357.06 K, 887 kPa, Fluid (supercritical or subcritical phases) | 50.07
357.06 K, 900.7 kPa, Fluid (supercritical or subcritical phases) | 50.9
357.06 K, 927.4 kPa, Fluid (supercritical or subcritical phases) | 52.68
357.06 K, 940.7 kPa, Fluid (supercritical or subcritical phases) | 53.53
357.06 K, 953.9 kPa, Fluid (supercritical or subcritical phases) | 54.39
357.06 K, 966.4 kPa, Fluid (supercritical or subcritical phases) | 55.2
357.06 K, 980.4 kPa, Fluid (supercritical or subcritical phases) | 56.19
357.06 K, 992.5 kPa, Fluid (supercritical or subcritical phases) | 56.92
357.06 K, 1019.3 kPa, Fluid (supercritical or subcritical phases) | 58.76
357.06 K, 1047.3 kPa, Fluid (supercritical or subcritical phases) | 60.62
357.06 K, 1075 kPa, Fluid (supercritical or subcritical phases) | 62.53
357.06 K, 1101.6 kPa, Fluid (supercritical or subcritical phases) | 64.29
357.06 K, 1126.7 kPa, Fluid (supercritical or subcritical phases) | 66.03
357.06 K, 1151 kPa, Fluid (supercritical or subcritical phases) | 67.74
357.06 K, 1176.3 kPa, Fluid (supercritical or subcritical phases) | 69.58
357.06 K, 1201.9 kPa, Fluid (supercritical or subcritical phases) | 71.4
357.06 K, 1228.4 kPa, Fluid (supercritical or subcritical phases) | 73.29
357.06 K, 1259 kPa, Fluid (supercritical or subcritical phases) | 75.66
357.06 K, 1289.5 kPa, Fluid (supercritical or subcritical phases) | 77.81
357.06 K, 1322.3 kPa, Fluid (supercritical or subcritical phases) | 80.32
357.06 K, 1338.6 kPa, Fluid (supercritical or subcritical phases) | 81.39
357.06 K, 1356.1 kPa, Fluid (supercritical or subcritical phases) | 82.86
357.06 K, 1372.3 kPa, Fluid (supercritical or subcritical phases) | 84.1
357.06 K, 1389.3 kPa, Fluid (supercritical or subcritical phases) | 85.41
357.06 K, 1417.8 kPa, Fluid (supercritical or subcritical phases) | 87.61
357.06 K, 1448.6 kPa, Fluid (supercritical or subcritical phases) | 89.98
357.06 K, 1476.5 kPa, Fluid (supercritical or subcritical phases) | 92.14
357.06 K, 1508.7 kPa, Fluid (supercritical or subcritical phases) | 94.88
357.06 K, 1525.6 kPa, Fluid (supercritical or subcritical phases) | 96.25
357.06 K, 1543.7 kPa, Fluid (supercritical or subcritical phases) | 97.72
357.06 K, 1568 kPa, Fluid (supercritical or subcritical phases) | 99.77
357.06 K, 1585.8 kPa, Fluid (supercritical or subcritical phases) | 101.24
357.06 K, 1616.4 kPa, Fluid (supercritical or subcritical phases) | 103.7
357.06 K, 1633.9 kPa, Fluid (supercritical or subcritical phases) | 105.22
